In publication PMC11855478, “Bicyclic N,S-Acetals Containing Fused Cysteine-Amide System as New Heterocyclic Class Targeting Human Farnesyltransferase (FTase-h)” (International Journal of Molecular Sciences, 2025):

Columns and labels:
Type in all cases: cell-based, human
MOLT-4 (Leukemia) = assay: NCI one dose, MOLT-4; conditions: MOLT-4, 1.00E-5 Molar one dose
Procedure, shortened: (§1)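 Here the NCI sixty-cell human cancer panel served as the test system; after two days (48 h) on compound, remaining cell mass was assessed by sulforhodamine B.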

RPMI-8226 (Leukemia) = assay: NCI one dose, RPMI-8226; conditions: RPMI-8226, 1.00E-5 Molar one dose
Procedure, shortened: as §1

[1] = system: HOP-62 (Non-Small Cell Lung Cancer); assay: NCI one dose, HOP-62; conditions: HOP-62, 1.00E-5 Molar one dose
Procedure, shortened: as §1

[2] = system: NCI-H322M (Non-Small Cell Lung Cancer); assay: NCI one dose, NCI-H322M; conditions: 1.00E-5 Molar one dose
Procedure, shortened: as §1

[3] = system: NCI-H460 (Non-Small Cell Lung Cancer); assay: NCI one dose, NCI-H460; conditions: NCI-H460, 1.00E-5 Molar one dose
Procedure, shortened: (§2)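 Cells of the National Cancer Institute 60-line human cancer screen are treated with test compound for 48 h, then growth is quantified by SRB assay.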

[4] = system: NCI-H522 non-small cell lung cancer cells; assay: NCI cell proliferation, NCI-H522
Procedure, shortened: as §2

COLO 205 (Colon Cancer) = assay: NCI one dose, COLO 205; conditions: COLO 205, 1.00E-5 Molar one dose
Procedure, shortened: as §1

HCC-2998 (Colon Cancer) = assay: NCI one dose, HCC-2998; conditions: HCC-2998, 1.00E-5 Molar one dose
Procedure, shortened: as §1

HCT-15 (Colon Cancer) = assay: NCI one dose, HCT-15; conditions: HCT-15, 1.00E-5 Molar one dose
Procedure, shortened: as §1

HT29 (Colon Cancer) = assay: NCI one dose, HT29; conditions: HT29, 1.00E-5 Molar one dose
Procedure, shortened: as §1

KM12 (Colon Cancer) = assay: NCI one dose, KM12; conditions: KM12, 1.00E-5 Molar one dose
Procedure, shortened: as §1

SW-620 (Colon Cancer) = assay: NCI one dose, SW-620; conditions: SW-620, 1.00E-5 Molar one dose
Procedure, shortened: as §1

SF-268 (CNS Cancer) = assay: NCI one dose, SF-268; conditions: SF-268, 1.00E-5 Molar one dose
Procedure, shortened: as §1

SF-295 (CNS Cancer) = assay: NCI one dose, SF-295; conditions: SF-295, 1.00E-5 Molar one dose
Procedure, shortened: as §2

SNB-19 (CNS Cancer) = assay: NCI one dose, SNB-19; conditions: SNB-19, 1.00E-5 Molar one dose
Procedure, shortened: as §1

U251 (CNS Cancer) = assay: NCI one dose, U251; conditions: U251, 1.00E-5 Molar one dose
Procedure, shortened: as §1

MALME-3M (Melanoma) = assay: NCI one dose, MALME-3M; conditions: 1.00E-5 Molar one dose
Procedure, shortened: as §2

M14 (Melanoma) = assay: NCI one dose, M14; conditions: M14, 1.00E-5 Molar one dose
Procedure, shortened: as §1

SK-MEL-2 (Melanoma) = assay: NCI one dose, SK-MEL-2; conditions: SK-MEL-2, 1.00E-5 Molar one dose
Procedure, shortened: as §1

SK-MEL-28 (Melanoma) = assay: NCI one dose, SK-MEL-28; conditions: SK-MEL-28, 1.00E-5 Molar one dose
Procedure, shortened: as §1

UACC-257 melanoma cells = assay: NCI one dose, UACC-257
Procedure, shortened: as §1

UACC-62 (Melanoma) = assay: NCI one dose, UACC-62; conditions: UACC-62, 1.00E-5 Molar one dose
Procedure, shortened: as §1

IGROV1 (Ovarian Cancer) = assay: NCI one dose, IGROV1; conditions: IGROV1, 1.00E-5 Molar one dose
Procedure, shortened: as §1

OVCAR-5 (Ovarian Cancer) = assay: NCI one dose, OVCAR-5; conditions: OVCAR-5, 1.00E-5 Molar one dose
Procedure, shortened: as §1

SK-OV-3 (Ovarian Cancer) = assay: NCI one dose, SK-OV-3; conditions: SK-OV-3, 1.00E-5 Molar one dose
Procedure, shortened: as §1

786-0 (Renal Cancer) = assay: NCI one dose, 786-0; conditions: 786-0, 1.00E-5 Molar one dose
Procedure, shortened: as §1

A498 (Renal Cancer) = assay: NCI one dose, A498; conditions: A498, 1.00E-5 Molar one dose
Procedure, shortened: as §1

ACHN (Renal Cancer) = assay: NCI one dose, ACHN; conditions: 1.00E-5 Molar one dose
Procedure, shortened: as §2

CAKI-1 (Renal Cancer) = assay: NCI one dose, CAKI-1; conditions: CAKI-1, 1.00E-5 Molar one dose
Procedure, shortened: as §1

TK-10 (Renal Cancer) = assay: NCI one dose, TK-10; conditions: TK-10, 1.00E-5 Molar one dose
Procedure, shortened: as §1

PC-3 (Prostate Cancer) = assay: NCI one dose, PC-3; conditions: PC-3, 1.00E-5 Molar one dose
Procedure, shortened: as §1

DU-145 (Prostate Cancer) = assay: NCI one dose, DU-145; conditions: DU-145, 1.00E-5 Molar one dose
Procedure, shortened: as §1

[5] = system: MDA-MB-231/ATCC (Breast Cancer); assay: NCI one dose, MDA-MB-231/ATCC; conditions: 1.00E-5 Molar one dose
Procedure, shortened: as §1

HS 578T (Breast Cancer) = assay: NCI one dose, HS 578T; conditions: 1.00E-5 Molar one dose
Procedure, shortened: as §1

BT-549 (Breast Cancer) = assay: NCI one dose, BT-549; conditions: BT-549, 1.00E-5 Molar one dose
Procedure, shortened: as §1

T-47D (Breast Cancer) = assay: NCI one dose, T-47D; conditions: 1.00E-5 Molar one dose
Procedure, shortened: as §2

[6] = system: MDA-MB-468 breast cancer cells; assay: NCI one dose, MDA-MB-468
Procedure, shortened: as §1

In the case of `COc1ccc(CNC(=O)[C@@H]2CS[C@@]3(C)c4ccccc4C(=O)N23)cc1OC` [4bI], the “Growth Percent” value (MOLT-4 (Leukemia)) is reported as 76.47%, the “Growth Percent” value (RPMI-8226 (Leukemia)) is reported as 81.37% and the “Growth Percent” value [1] is reported as 97.01%. For the same compound, the “Growth Percent” value [2] was 96.18%, the “Growth Percent” value [3] was 103.23% and the GI50 ([4]; Homo sapiens, NCI-H522) was 12.9 µM. The inhibition at 10 µM ([4]; Homo sapiens, NCI-H522, 10 µM, read-out: % Cancer cell growth Inhibition (NCI-H522)) was 45%, the “Growth Percent” value ([4]; NCI-H522, 1.00E-5 Molar one dose) was 54.70% and the “Growth Percent” value (COLO 205 (Colon Cancer)) was 107.68%. The “Growth Percent” value (HCC-2998 (Colon Cancer)) was 96.29%, the “Growth Percent” value (HCT-15 (Colon Cancer)) was 112.46% and the “Growth Percent” value (HT29 (Colon Cancer)) was 77.04%. For the same compound, the “Growth Percent” value (KM12 (Colon Cancer)) was 102.81%, the “Growth Percent” value (SW-620 (Colon Cancer)) was 101.58% and the “Growth Percent” value (SF-268 (CNS Cancer)) was 99.31%. The “Growth Percent” value (SF-295 (CNS Cancer)) was 102.29%, the “Growth Percent” value (SNB-19 (CNS Cancer)) was 96.85% and the “Growth Percent” value (U251 (CNS Cancer)) was 93.58%. For the same compound, the “Growth Percent” value (MALME-3M (Melanoma)) was 106.59%, the “Growth Percent” value (M14 (Melanoma)) was 107.68% and the “Growth Percent” value (SK-MEL-2 (Melanoma)) was 79.40%. For the same compound, the “Growth Percent” value (SK-MEL-28 (Melanoma)) was 104.89%, the inhibition at 10 µM (UACC-257 melanoma cells; Homo sapiens, UACC-257, 10 µM single dose, read-out: inhibition of growth of UACC-257 melanoma cells) was 27% and the “Growth Percent” value (UACC-257 melanoma cells; UACC-257, 1.00E-5 Molar one dose) was 73.35%. The “Growth Percent” value (UACC-62 (Melanoma)) was 79.36%, the “Growth Percent” value (IGROV1 (Ovarian Cancer)) was 104.59% and the “Growth Percent” value (OVCAR-5 (Ovarian Cancer)) was 111.28%. The “Growth Percent” value (SK-OV-3 (Ovarian Cancer)) was 103.22%, the “Growth Percent” value (786-0 (Renal Cancer)) was 107.06% and the “Growth Percent” value (A498 (Renal Cancer)) was 83.43%. For the same compound, the “Growth Percent” value (ACHN (Renal Cancer)) was 96.90%, the “Growth Percent” value (CAKI-1 (Renal Cancer)) was 89.36% and the “Growth Percent” value (TK-10 (Renal Cancer)) was 95.68%. For the same compound, the “Growth Percent” value (PC-3 (Prostate Cancer)) was 88.41%, the “Growth Percent” value (DU-145 (Prostate Cancer)) was 103.50% and the “Growth Percent” value [5] was 98.00%. The “Growth Percent” value (HS 578T (Breast Cancer)) was 94.35%, the “Growth Percent” value (BT-549 (Breast Cancer)) was 110.79% and the “Growth Percent” value (T-47D (Breast Cancer)) was 71.47%. The inhibition at 10 µM ([6]; Homo sapiens, MDA-MB-468, 10 µM single dose, read-out: inhibition of growth of MDA-MB-468 breast cancer cells) was 30% and the “Growth Percent” value ([6]; MDA-MB-468, 1.00E-5 Molar one dose) was 70.36%.
